Results taken from patent EP1420018A1, “Pyrido[1,2-a]benzimidazole derivatives useful in treating central nervous system disorders” (Ortho-McNeil Pharmaceutical, Inc., priority 1996, dated 1998).
Structures can show the parent of a compound that is named as a salt. Where two headings read alike, the source gives them in different places.

Legend:
[1] = tested on: metrazol-induced convulsions; test: Suppression of Metrazol-Induced Convulsions in Adult Male Mice; format: in vivo; conditions: for ED50: Mus musculus, ip
Description: Assay to Determine the Suppression of Metrazol-Induced Convulsions in Adult Male Mice
Male CD1 mice, were fasted at least 16 hours, were divided into equal groups and test compounds or vehicle were administered parenterally. Water was not withheld except during the period of observations. […] Metrazol was dissolved in 0.9% sodium chloride solution, and its dose volume was 10 ml/kg. Animals were housed individually for observation of clonic convulsions, tonic convulsions and death for a period of 30 min. […] The biological assay was considered to be valid if the effects of a known anticonvulsant (positive control) were detected, within the same experiment. Activity was reported as percent reduction of clonic convulsions from the vehicle group.

[2] = tested on: Anxiety in the Adult Male Rat; test: Suppression of Anxiety in the Adult Male Rat (rat conflict test); format: in vivo, rats; conditions: for minimal effective dose: Rattus norvegicus
Description: Assay to Measure the Suppression of Anxiety in the Adult Male Rat
Male rats were deprived of water for 48 hours and were deprived of food for 24 hours prior to testing. After the first 24 hours of water deprivation, they were placed in the conflict chamber for a training period; wherein, they were allowed 200 unpunished licks from a bottle containing tap water. The experiment was run the next day. At the expected time of peak activity, the animals were placed in the chamber and allowed access to tap water. […] Their first lick initiates a 3-min test session. Subsequently, every 20th lick was punished by a 0.2-s shock delivered via the stainless-steel drinking-tube.
The Wilcoxon rank-sum test (Mann-Whitney U-test) was used to test for an increase (p<0.05, 1-tailed) in the median number of shocks in drug-treated groups, compared to a concurrently run vehicle-treated group. The biological assay is considered to be valid if the effects of a known anxiolytic (positive control) are detected, within the same experiment.

[3] = tested on: metrazol-induced convulsions; test: Suppression of Metrazol-Induced Convulsions in Adult Male Mice; format: in vivo; conditions: for ED50: Mus musculus, po
[4] = biological target: benzodiazepine site of the GABA-A receptor; test: Benzodiazepine Receptor Binding Assay (inhibition of 3H-flunitrazepam binding); conditions: read-out: GABAA Receptor Binding IC50
[5] = ip, rat, ip, read-out: Rat Conflict (MED, mg/kg) ip
[6] = po, rat, po, read-out: Rat Conflict (MED, mg/kg) po
[7] = block of clonic convulsions, male CD1 mice, >30 = active dose not determined
[8] = ip, minimum effective dose, increase in shocks tolerated, >10 = active dose not determined, read-out: Rat Conflict (MED, mg/kg) ip
[9] = po, minimum effective dose, increase in shocks tolerated, >10 = active dose not determined, read-out: Rat Conflict (MED, mg/kg) po
[10] = inhibition of 3H-flunitrazepam (ca. 3 nM) binding to membranes, 25°C, over 10,000 = not active

Row | Compound | IC50 [4] [nM] | ED50 ([1]; mouse) [mg/kg] | minimal effective dose [2, 5] [mg/kg] | minimal effective dose [2, 6] [mg/kg] | ED50 ([3]; mouse) [mg/kg] | also measured
1 | CN(C)CCN1C2=C(C(=O)Nc3cccs3)C(=O)CCN2c2ccc(F)cc21 [Compound 49] | 152 | 3 | > 10 | ~10 | ~5 | 
2 | O=C1CCN2C(=C1C(=O)Nc1ccccc1F)N(CCNC(=O)c1ccccc1)c1cc(F)ccc12 [Compound 46] | 8.1 | 1 |  | ~10 | 30 | 
3 | O=C1CCN2C(=C1C(=O)Nc1ccccc1F)N(CCNC(=O)C(F)(F)F)c1cc(F)ccc12 [Compound 51] | 0.51 | 0.3 | ~10 | > 10 | 1 | 
4 | CN(CCN1C2=C(C(=O)Nc3ccccc3F)C(=O)CCN2c2ccc(F)cc21)Cc1ccc(F)cc1 [Compound 62] | 7.69 | 3 | < 10 | > 10 | 30 | 
5 | CN(C)c1ccc(CCN2C3=C(C(=O)Nc4ccccc4F)C(=O)CCN3c3ccc(F)cc32)cc1 [Compound 84] | 8.52 | 1 | > 10 |  | < 30 | 
6 | O=C1CCN2C(=C1C(=O)Nc1ccccc1F)N(CCNC(=O)c1ccc(C(F)(F)F)cc1)c1cc(F)ccc12 [Compound 42] |  |  |  |  |  | ED50 [1, 7]: ≥ 30 mg/kg; minimal effective dose [2, 8]: ≤ 10 mg/kg; minimal effective dose [2, 9]: ~3 mg/kg; ED50 [3, 7]: > 30 mg/kg; IC50 [4, 10]: 17 nM
7 | O=C1CCN2C(=C1C(=O)Nc1ccccc1F)N(CCNS(=O)(=O)c1ccc(C(F)(F)F)cc1)c1cc(F)ccc12 [Compound 39] |  |  |  |  |  | ED50 [1, 7]: > 1 mg/kg; minimal effective dose [2, 9]: > 10 mg/kg; ED50 [3, 7]: > 3 mg/kg; IC50 [4, 10]: 122 nM
8 | CN(C)C=NCCN1C2=C(C(=O)Nc3ccccc3F)C(=O)CCN2c2ccc(F)cc21 [Compound 40] |  |  |  |  |  | ED50 [1, 7]: < 1 mg/kg; minimal effective dose [2, 9]: 10 mg/kg; ED50 [3, 7]: ~30 mg/kg; IC50 [4, 10]: 35 nM
9 | 7-Fluoro-1,2-dihydro-5-[2-(methoxy)ethoxymethyl]-3-oxo-N-(2-fluorophenyl)pyrido[1,2-a]benzimidazole-4-carboxamide [Compound 160] | 0.48 |  |  |  |  | Mouse Metrazol (ED50, mg/kg) ip ([1]; mouse): <1 mg/kg; Rat Conflict (MED, mg/kg) ip ([2]; rat, ip): <10 mg/kg; Rat Conflict (MED, mg/kg) po ([2]; rat, po): 1 mg/kg; Mouse Metrazol (ED50, mg/kg) po ([3]; mouse): 0.3 mg/kg
10 | COCCN(CCN1C2=C(C(=O)Nc3ccccc3F)C(=O)CCN2c2ccc(F)cc21)Cc1ccccc1 [Compound 56] | 7.99 | 1 | > 10 |  | ~10 | 
11 | COc1cccc(NC(=O)C2=C3N(CC#N)c4ccccc4N3CCC2=O)c1 [Compound 90] |  |  |  |  |  | ED50 [1, 7]: < 1 mg/kg; minimal effective dose [2, 9]: 1 mg/kg; ED50 [3, 7]: 0.5 mg/kg; IC50 [4, 10]: 6.04 nM
12 | CCOCN1C2=C(C(=O)Nc3cc4ccccc4s3)C(=O)CCN2c2ccccc21 [Compound 116] | 100 | > 1 |  | > 10 | > 30 | 
13 | CN1CCCC(N2C3=C(C(=O)Nc4ccccc4F)C(=O)CCN3c3ccc(F)cc32)C1 (stereo not drawn) [Compound 87] |  |  |  |  |  | ED50 [1, 7]: 3 mg/kg; minimal effective dose [2, 8]: > 10 mg/kg; minimal effective dose [2, 9]: > 10 mg/kg; ED50 [3, 7]: 10 mg/kg; IC50 [4, 10]: 30.7 nM
14 | CCOCN1C2=C(C(=O)Nc3cccs3)C(=O)CCN2c2ccc(F)cc21 [Compound 129] | 1.05 | < 1 |  | 3 | ~0.2 | 
15 | O=C(CN1C2=C(C(=O)Nc3ccccc3F)C(=O)CCN2c2ccc(F)cc21)Nc1ccccc1F [Compound 61, 7-Fluoro-1,2-dihydro-5-[N-(2-fluorophenyl)-2-acetamido]-3-oxo-N-(2-fluorophenyl)pyrido[1,2-a]benzimidazole-4-carboxamide] | 6.32 | < 1 | > 10 |  | 30 | 
16 | CN(CCN1C2=C(C(=O)Nc3ccccc3F)C(=O)CCN2c2ccc(F)cc21)S(=O)(=O)C(F)(F)F [Compound 37] |  |  |  |  |  | ED50 [1, 7]: > 1 mg/kg; minimal effective dose [2, 9]: > 10 mg/kg; ED50 [3, 7]: > 30 mg/kg; IC50 [4, 10]: 18.3 nM
17 | CC(C)(C)OC(=O)CN1C2=C(C(=O)Nc3ccccc3F)C(=O)CCN2c2ccc(F)cc21 [Compound 176] | 56.2 | > 1 |  | > 10 | > 30 | 
18 | CN(C)CCN1C2=C(C(=O)Nc3c(F)cc(F)cc3F)C(=O)CCN2c2ccc(F)cc21 [Compound 54] | 208 | 10 | > 10 |  | > 30 | 
19 | O=C1CCN2C(=C1C(=O)Nc1ccccc1F)N(CC1CCCO1)c1cc(F)ccc12 (stereo not drawn) [Compound 175] | 1.5 | < 1 |  | > 10 | 2 | 
20 | CCOCCN1C2=C(C(=O)Nc3ccnc(F)c3)C(=O)CCN2c2ccc(F)cc21 [Compound 130] | 2.27 | < 1 |  | 1 | ~0.8 | 
21 | CCOCN1C2=C(C(=O)Nc3ccc(Cl)s3)C(=O)CCN2c2ccc(F)cc21 [Compound 134] | 1.81 | < 1 |  | > 10 | 2 | 
22 | CC1(CN2C3=C(C(=O)Nc4ccccc4F)C(=O)CCN3c3ccc(F)cc32)COC1 [Compound 180] | 18 | 1 |  | > 10 | > 30 | 

More lines, main results first:

Row | IC50 [4] [nM] | Compound | ED50 ([1]; mouse) [mg/kg] | minimal effective dose [2, 5] [mg/kg] | minimal effective dose [2, 6] [mg/kg] | ED50 ([3]; mouse) [mg/kg] | also measured
23 | 54.8 | O=C(O)CN1C2=C(C(=O)Nc3ccccc3F)C(=O)CCN2c2ccc(F)cc21 [Compound 177] | > 1 |  | > 10 | > 30 | 
24 | 49.9 | CN(C)CCN1C2=C(C(=O)Nc3ccccc3F)C(=O)CCN2c2ccc(F)cc21 [Compound 74, 7-Fluoro-1,2-dihydro-5-(2-dimethylaminoethyl)-3-oxo-N-(2-fluorophenyl)pyrido[1,2-a]benzimidazole-4-carboxamide hydrochloride hydrate (4:4:1)] | 0.5 | < 10 | 3 | < 3 | 
25 | 4.47 | COCCN1C2=C(C(=O)Nc3ccc(OC)cc3)C(=O)CCN2c2ccc(F)cc21 [Compound 106] | < 1 |  | 1 | 0.3 | 
26 | 10.5 | CC(C)NC(=O)NCCN1C2=C(C(=O)Nc3ccccc3F)C(=O)CCN2c2ccc(F)cc21 [Compound 79] | > 1 |  | > 10 | > 30 | 
27 | 0.15 | COCN1C2=C(C(=O)Nc3ccccc3F)C(=O)CCN2c2ccc(F)cc21 [Compound 158] | 0.01 | < 10 | 3 | 0.1 | 
28 | 0.61 | COCCN1C2=C(C(=O)Nc3ccccc3F)C(=O)CCN2c2ccc(F)cc21 [Compound 163] | 0.01 | < 10 | 0.1 | 0.2 | 
29 | 16 | COCCN1C2=C(C(=O)Nc3ccc(Cl)cc3)C(=O)CCN2c2ccccc21 [Compound 156] | < 1 |  | 1 | ~2 | 
30 | 1.08 | COCCN1C2=C(C(=O)Nc3ccccc3F)C(=O)CCN2c2ccc(F)c(F)c21 [Compound 149] | < 1 |  | > 10 | 3 | 
31 | 0.32 | CC(C)OCCN1C2=C(C(=O)Nc3ccccc3F)C(=O)CCN2c2ccc(F)cc21 [Compound 150] | < 1 |  | 10 | 1 | 
32 | 3.17 | COCCN1C2=C(C(=O)Nc3ccc(C)s3)C(=O)CCN2c2ccccc21 [Compound 142] | < 1 |  | ~1 | 0.7 | 
33 | 4.64 | COCCN1C2=C(C(=O)Nc3c(F)cccc3F)C(=O)CCN2c2ccccc21 [Compound 151] | < 1 |  | 10 | ~2 | 
34 | 5.47 | CC(=O)NCCN1C2=C(C(=O)Nc3ccccc3F)C(=O)CCN2c2ccc(F)cc21 [Compound 53] | 7 | > 10 |  | 30 | 
35 | 0.14 | CCOCN1C2=C(C(=O)Nc3ccccc3F)C(=O)CCN2c2ccc(F)cc21 [Compound 172] | 0.01 | ≤ 10 | 0.3 | 0.1 | 
